Where “and” joins values, the source holds several entries; their conditions need not be identical. Identical values can stand only once. Marks after values point to notes of the source that are not given here.
What was measured:
[1] = test system: imiquimod-induced skin lesions; assay: Imiquimod-induced psoriasis model in mice: clinical signs and dorsal skin histopathology; format: in vivo; set-up: key to Hyperkeratosis, protective effect / Epidermal serocellular crust, protective effect / Acanthosis, protective effect / Dermal inflammatory infiltrates, protective effect: the (+) sign represents the presence of a protective effect; a (−) sign represents the absence of protective effect
Text: To test whether Compound I might ameliorate the signs of psoriasis, we topically administered Compound I to imiquimod-induced skin lesions in mice. The imiquimod mouse model of psoriasis-like skin inflammation is characterized by lesions that show augmented epidermal cell proliferation, abnormal keratinocyte differentiation, neutrophil accumulation in epidermal microabcesses, and neoangiogenesis.
For this study, thirty two 8-week old female Balbc/J mice were housed […] in positively ventilated polysulfonate cages with HEPA filtered air at a density of 4 mice per cage. The animal room was lighted entirely with artificial fluorescent lighting, with a controlled 12 h light/dark cycle (6 am to 6 pm light). The normal temperature and relative humidity ranges in the animal rooms were 22±4° C. and 50±15%, respectively. The animal rooms were set to have a minimum of 15 air exchanges per hour. Filtered tap water, acidified to a pH of 2.5 to 3.0, and standard rodent chow were provided ad libitum. After 1 week of acclimation mice were randomized into 4 groups (n=8/each) as shown below (Table 1).
1. IMQ induction: On day 0 all grouped mice received a topical dose of 62.5 mg of IMQ cream (5%) on the shaved back for 6 consecutive days. (Day 0 to Day 5)
3. Mice were scored for clinical parameters of disease based on degree of erythema, scaling and thickening independently on a scale of 0-4. 0=none; 1=slight; 2=moderate; 3=moderate to severe: 4=severe. These observations were recorded on day 0, 2, 4, 6, and 8. On the same days, back skin thickness was measured with calipers.
5. Mice were sacrificed on day 10 by CO2 asphyxiation.
6. A part of the back skin was harvested and fixed for histology. Slides were processed, stained with H&E for histology assessment.
Dorsal skin sections were evaluated histopathologically for evidence of key features of psoriasis, such as parakeratosis, hyperkeratosis (thickening of the stratum corneum), acanthosis (diffuse thickening of the stratum spinosum of the skin), epidermal serocellular crusts, epidermal microabscesses, basilar papillae, dermal inflammatory infiltrates and dilated tortuous capillaries (Table 2. Histopathological scoring system and definition used in the Imiquimod psoriasis model).

[2] = Body and spleen weight in imiquimod psoriasis model mice; settings: 9 days topical treatment
Experimental: Mice were dosed with 0.1-0.2 ml of vehicle [90% (v/v) DMSO in pyrogen-free sterile water] or test compounds (0.1-0.2 ml of Compound I) or reference compound (˜0.05 mg clobetasol propionate, 0.5 mg/g cream) for 9 days (day 0-day 8) as indicated in Table 1. Compound I Doses 1 and 2 were 0.05% (w/v) and 0.1% (w/v) in 90% (v/v) DMSO in vehicle.
Body weights were measured daily.
Spleens were harvested, weighed and discarded.

LXR-alpha = target: T1, LXR-alpha (Homo sapiens, UniProt Q13133); assay: LXR-alpha/RXR LRE-luciferase reporter in transfected HEK293T cells; format: cell-based; settings: 10 uM, 18 h
T1 sequence (Q13133 1-447): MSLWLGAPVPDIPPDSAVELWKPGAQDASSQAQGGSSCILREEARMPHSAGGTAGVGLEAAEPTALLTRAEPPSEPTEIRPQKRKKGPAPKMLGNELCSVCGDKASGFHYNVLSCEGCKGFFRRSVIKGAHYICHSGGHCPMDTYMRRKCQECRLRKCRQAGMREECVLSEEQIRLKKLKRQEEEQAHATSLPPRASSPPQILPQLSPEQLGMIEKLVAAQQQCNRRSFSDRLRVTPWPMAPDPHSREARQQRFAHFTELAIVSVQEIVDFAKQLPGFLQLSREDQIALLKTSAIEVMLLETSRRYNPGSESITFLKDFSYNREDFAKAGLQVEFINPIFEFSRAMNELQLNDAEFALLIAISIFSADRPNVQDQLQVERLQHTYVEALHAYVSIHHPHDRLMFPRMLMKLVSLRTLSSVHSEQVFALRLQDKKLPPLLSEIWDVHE
T1 sequence (P19793 1-462 partner): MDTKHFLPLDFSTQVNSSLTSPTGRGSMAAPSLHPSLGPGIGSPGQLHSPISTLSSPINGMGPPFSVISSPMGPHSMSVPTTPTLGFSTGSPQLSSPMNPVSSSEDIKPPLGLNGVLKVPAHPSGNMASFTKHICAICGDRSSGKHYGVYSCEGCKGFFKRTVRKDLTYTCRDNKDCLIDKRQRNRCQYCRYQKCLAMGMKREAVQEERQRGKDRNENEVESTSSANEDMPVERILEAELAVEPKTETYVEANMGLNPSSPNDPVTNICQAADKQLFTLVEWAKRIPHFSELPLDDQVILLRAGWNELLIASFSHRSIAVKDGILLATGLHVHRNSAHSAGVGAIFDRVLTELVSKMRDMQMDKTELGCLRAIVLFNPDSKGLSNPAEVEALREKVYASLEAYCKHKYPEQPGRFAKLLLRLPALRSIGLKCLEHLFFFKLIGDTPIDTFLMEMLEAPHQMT
Text: Since we had previously shown that the beneficial effects of the compounds of the invention are independent of glucocorticoid receptor (GR) activation, we set forth to investigate if they might exert their actions through activation of liver X receptors (LXR). For this purpose we used cultured cells transiently transfected with LXR-alpha, the retinoid X receptor (RXR) and a LXR response element-luciferase reporter (LRE-LUC). A. Human embryonic kidney cells (HEK293T; 5×10^5 cells/well) were cultured in DMEM medium supplemented with 10% (v/v) fetal bovine serum, 100 ug/ml of streptomycin, 100 IU/ml of penicillin and 2 mM glutamine. For the transient transfections, the cell cultures were added with plasmids carrying LXR-alpha (pLXR-alpha; 0.6 ug), the retinoid X receptor (pRXR; 0.2 ug), a LXR response element-luciferase reporter (pRE-LUC; 0.7 ug) and beta-galactosidase gene (pRSV-LacZ; 0.6 ug) as a transfection control, using Lipofectamine 2000 (Invitrogen). […] Compounds III to VI are […] analogs bearing a fluorine atom at C-6. To assess LXR-alpha activation, at the end of the incubation period luciferase activity was measured by use of a luciferase assay system (Promega). The results of three independent assays, carried out in duplicate for each condition, are reported.

[3] = Plasma total cholesterol, HDL-cholesterol and triglyceride in C57BI mice after 5 days i.p. treatment; format: in vivo; settings: male C57BI mice; T0901317 5 mg/kg i.p. daily for 5 days
Experimental: (§1) Administration of synthetic LXR agonists such as T0901317 induces a marked increment of liver lipogenesis that leads to hepatic steatosis and plasma hypertriglyceridemia.
(§2) Male C57BI mice received daily for 5 days intraperitoneal injections containing either 10 mg Compound I/kg, or 5 mg T0901317/kg, or vehicle [90% (v/v) DMSO in apyrogenic sterile water]. On the sixth day of the assay, the animals were fasted for 4 h before decapitation. Blood plasma was obtained for the determination of total cholesterol, HDL-cholesterol and triglyceride contents. The livers were resected, and their weights and colors used as gross markers of increased liver triglyceride contents.

[4] = Liver weight and gross morphology (hepatic steatosis) in C57BI mice after 5 days i.p. treatment; format: in vivo; settings: male C57BI mice, T0901317 5 mg/kg i.p. daily for 5 days
Experimental: as §1, §2

[5] = psoriatic mice, topical 0.05%, QD 9 days
[6] = topical 0.05%, summary of Table 3

For `CCC(=O)O[C@]1(C(=O)CCl)[C@@H](C)C[C@H]2[C@@H]3CCC4=CC(=O)C=C[C@]4(C)[C@@]3(F)[C@@H](O)C[C@@]21C` [Clobetasol, clobetasol propionate, reference compound], which “acanthosis reduced versus 0.1% (w/v) Compound I-treated animals” value ([1]; Clobetasol-treated mice) is on record?
Its value is 33%.

What about the “dermal inflammatory infiltrates versus 0.1% (w/v) Compound I-treated animals” value ([1]; Clobetasol-treated mice) of the same compound?
Its value is “absent”.

And the “back skin thickening (calipers)” value ([1]; after 9 days topical, Compound I 0.05% and 0.1% (w/v), clobetasol 0.05% cream)?
Its value is “inhibited IMQ-induced skin thickening in the back”.

What about the “global response score of dorsal skin, lower than in vehicle-treated psoriatic mice” value ([1]; clobetasol 0.05% topical, 9 days) of the same compound?
The value was ~42%.

And the “skin erythema (clinical score 0-4, in words)” value ([1]; day 8, topical QD 9 days, both Compound I doses 0.05% and 0.1% (w/v), clobetasol 0.05% cream)?
Its value is “absent”.

What about the “scaling (clinical score 0-4, in words)” value ([1]; day 8, topical QD 9 days, both Compound I doses, clobetasol 0.05% cream) of the same compound?
Its value is “absent in ⅝ mice and slight in the rest of the animals”.

And the “Acanthosis (0-4), group mean score of dorsal skin” value [1, 5]?
The value was 1.4††.

And the “Basliar papillae (0-4), group mean score of dorsal skin” value [1, 5]?
The value was 0.0.

What about the “Dermal inflammatory infiltrates (0-4), group mean score of dorsal skin” value [1, 5] of the same compound?
Its value is 0.0††.

And the “Dilated tortuous capillaries (0-4), group mean score of dorsal skin” value [1, 5]?
The value was 0.0.

What about the “Epidermal micro-abscesses (0-4), group mean score of dorsal skin” value [1, 5] of the same compound?
The value was 0.0.

And the “Epidermal serocellular rust (0-4), group mean score of dorsal skin” value [1, 5]?
The value was 0.6.

And the “Hyperkeratosis (0-4), group mean score of dorsal skin” value [1, 5]?
The value was 1.8.

And the “Mean Global Score, dorsal skin” value [1, 5]?
Its value is 3.8.

And the “Parakeratosis (0-4), group mean score of dorsal skin” value [1, 5]?
Its value is 0.0.

What about the “severity of microscopic alterations of back skin (histopathology)” value ([1]; topical 0.05%, QD 9 days) of the same compound?
Its value is “lowest severity”.

What about the “Acanthosis, protective effect” value [1, 6] of the same compound?
The value was “+”.

And the “Dermal inflammatory infiltrates, protective effect” value [1, 6]?
The value was “+”.

What about the “Epidermal serocellular crust, protective effect” value [1, 6] of the same compound?
Its value is “−”.

What about the “Hyperkeratosis, protective effect” value [1, 6] of the same compound?
Its value is “−”.

And the “reduction of body weight compared with vehicle-treated psoriatic mice” value [2]?
Its value is 15%.

And the “reduction of spleen weight compared with vehicle-treated psoriatic mice” value [2]?
Its value is 62.6%.

Which “induction of LXR-alpha driven gene expression compared with GW3965 (1 uM)” value (LXR-alpha) does the source give for `CC[C@@H](C(C)C)[C@H](O)[C@@H](O)[C@@H](C)[C@H]1CC[C@H]2[C@@H]3C[C@@H](F)C4=CC(=O)CC[C@]4(C)[C@H]3CC[C@]12C` [Compound IV, (22S,23S)-6β-fluoro-22,23-dihydroxystigmast-4-en-3-one] here?
The value was “within the same range as that observed for GW3965”.

For `O=S(=O)(c1ccccc1)N(CC(F)(F)F)c1ccc(C(O)(C(F)(F)F)C(F)(F)F)cc1` [Compound T0901317], which “HDL-cholesterol plasmatic content higher than in Compound I- or Vehicle-treated mice” value [3] is on record?
Its value is 50%.

And the “total cholesterol plasmatic content higher than in Compound I- or Vehicle-treated mice” value [3]?
The value was 50%.

And the “triglyceride plasmatic content higher than in Compound I- or Vehicle-treated mice” value [3]?
Its value is > 2 times.

What about the “liver color versus DMSO-treated mice” value [4] of the same compound?
Its value is “paler”.

And the “liver steatosis (liver weight and color)” value [4]?
The value was “induces liver steatosis”.

What about the “liver weight higher than in DMSO-treated mice” value ([4]; 5 mg/kg) of the same compound?
Its value is 27% and ~23%.

With `CC[C@@H](C(C)C)[C@H](O)[C@@H](O)[C@@H](C)[C@H]1CC[C@H]2[C@@H]3C[C@@H](F)C4=CC(=O)C=C[C@]4(C)[C@H]3CC[C@]12C` [Compound VI, (22S,23S)-6β-fluoro-22,23-dihydroxystigmasta-1,4-dien-3-one] as the compound, how does the “induction of LXR-alpha driven gene expression compared with GW3965 (1 uM)” value (LXR-alpha) read?
Its value is “within the same range as that observed for GW3965”.

From patent US20190365784A1, “USE OF BRASSINOSTEROID ANALOGS FOR THE TREATMENT OF DERMAL DISORDERS BY SELECTIVELY MODULATING LIVER X RECEPTORS (LXR) AND DERMAL DISEASE TREATMENT BY BRASSINOSTEROID ANALOGS ACTING AS SELECTIVE LIVER X RECEPTOR (LXR) MODULATORS” (CONSEJO NACIONAL DE INVESTIGACIONES CIENTÍFICAS Y TÉCNICAS …, priority 2015, published 2019)
